Data on two compounds can be found in patent US20150182527A1, “COMPOSITIONS, DEVICES AND METHODS OF TREATING INFECTIONS” (COOK MEDICAL TECHNOLOGIES LLC, priority 2014, published 2015).

In test [1] the test system is C. albicans #ATCC 10231. Kind of test: Checkerboard microdilution MIC of azole and quaternary ammonium salt combinations. The format is cell-based, Candida albicans. The conditions noted are these: for MIC: Candida albicans. An excerpt: (§1) Interactions between the selected azoles and quaternary ammonium salts (quats) were characterized via changes in minimum inhibitory concentration (MIC) using a checkerboard method in 96-well plates. This method is adapted from the microdilution method outlined in CLSI, M27-A3 (2008), —Reference Method for Broth Dilution Antifungal Susceptibility Testing of Yeasts; Approved Standard—3rd Edition.
(§2) Briefly, X and Y axes were established on the plates to serve as MIC controls for the compounds acting individually. Two-compound interactions were evaluated at the X-Y axis intersection of the two single-drug concentration axes.
(§3) Frozen concentrated stock compound solutions were used as the starting point in making the dilution series. […] One-quarter of the final well volume of the 4× stock was added to the appropriate wells. For wells with a second compound, one-quarter of the final well volume of the second compound was also added. An equivalent volume of culture media was added to wells in which only a single compound was tested.
(§4) Final well volume was either 100 μl or 200 μl depending on assay run. After addition of the 4× stocks and/or media, one-half of the final well volume of 5×10^3 CFU/mL yeast inoculum was added to each test well. Yeast inoculums were made from a 0.5 McFarland-matched culture that had been growing for 4-5 hours at 37° C. in trypticase soy broth (TSB). Each assay plate also included inoculum-only growth control wells (half the final well volume of inoculum plus the other half culture media) and culture media-only control wells. The inoculated plates were cultured aerobically in a humidified 36° C. room air incubator for 18 hours or 24 hours (±1 hour), depending on assay run, at which time growth was scored. The scored plates were then returned to the incubator for an additional 24 hours (±1 hour) of culturing and scored a second time (at 42 or 48 hours total culturing time).
(§5) Unless stated otherwise, yeast growth was scored using the subjective five tier numerical score (NS) scale established in CLSI M27-A3: 4=no reduction in growth relative to control, 3=slight reduction in growth (-25% reduction), 2=prominent decrease in growth (˜50% reduction), 1=slightly hazy growth (-75% reduction), 0 =no visible growth. Growth is scored relative to the on-plate inoculum control.
(§6) The checkerboard plate data was utilized to derive a fractional inhibitory concentration index (FICI) value that scores the interaction between compounds on a three category interaction scale: FICI <0.5 indicates synergy, FICI 0.5-4 indicates no interaction, and FICI >4 indicates antagonism. The FICI equation is: […]
For orientation: In broth dilution the organism is exposed to a series of concentrations in liquid medium.

Test [2] has as its system C. glabrata # ATCC 2950. The test is described as above. The test is classed as cell-based, Candida glabrata. The conditions noted are these: for MIC: Nakaseomyces glabratus, ATCC2950, fluconazole alone or its concentration in the combination.
Description: as §1, §2, §3, §4, §5, §6

The mark [3] stands for this setting: TSB media, 48 hours post inoculation, benzalkonium-Cl alone or its concentration in the combination.

By MIC is commonly meant the lowest concentration found to suppress growth.

As to `OC(Cn1cncn1)(Cn1cncn1)c1ccc(F)cc1F` [Fluconazole, fluconazole], the MIC is 128 µg/mL in test [1] (ATCC10231, 48 h, RPMI media, 48 hours post inoculation, fluconazole alone or its concentration in the combination); 256 µg/mL in test [1] (ATCC10231, TSB media, 42 hours post inoculation, NS≦2 is efficacious, fluconazole alone or its concentration in the combination); 64 µg/mL in test [1] (ATCC10231, TSB media, 48 hours post inoculation, fluconazole alone or its concentration in the combination with benzalkonium-Cl); 16 µg/mL in test [2] (RPMI media, 48 hours post inoculation); 16 µg/mL in test [2] (TSB media, 42 hours post inoculation, NS≦2 is efficacious). In test [2] (TSB media, 48 hours post inoculation, fluconazole alone or its concentration in the combination with benzalkonium-Cl), the “Fluconazole MIC” value was found to be 16 µg/mL.

Turning to benzalkonium chloride [Benzalkonium-Cl], the “Benzalkonium-Cl MIC” value in test [1] (setting [3]) turned out to be 3.8 µg/mL; in test [2] (setting [3]), 1.9 µg/mL.
